This assay has as its system HIV-1 single-round infectious reporter virus. As to the kind of experiment: Single-round infectious HIV-1 luciferase reporter virus infection of HeLa CD4 cells (antiviral EC50). Type of assay: cell-based. The note with it: Human immunodeficiency virus 1, HeLa, read-out: EC50 Group from Table 3. Put shortly: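 Env-pseudotyped single-round HIV-1 reporter virus (env-deleted provirus with luciferase in place of nef, made in 293 cells) infected HeLa CD4 cells at MOI ~0.01 with compound present, up to 10 μM final. Luciferase luminescence read after 72 h at 37 °C; EC50 from four-parameter logistic fit of % inhibition over 10 concentrations.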
(A reporter such as luciferase makes a cellular process visible.)

pEC50: −log10 of the molar value.

A word on the pEC50: it is −log10 of the EC50, conventionally taken in molar units. In the case of `COc1cnc(-c2ccc(C#N)nc2)c2[nH]cc(C(=O)C(=O)N3CCN(c4nnnn4-c4ccccn4)CC3)c12` [H-11], the pEC50 is over 6.30.

With `C[C@@H]1CN(C(=O)C(=O)c2c[nH]c3c(Cl)ncc(O)c23)CCN1c1nnnn1-c1ccccc1` [A-56], the pEC50 is under 6.30.

Take `C[C@@H]1CN(c2nnnn2-c2ccccc2)C[C@H](C)N1C(=O)C(=O)c1c[nH]c2c(-n3ccnn3)ncc(F)c12` [C-1, 1-((2R,6S)-2,6-dimethyl-4-(1-phenyl-1H-tetrazol-5-yl)piperazin-1-yl)-2-(4-fluoro-7-(1H-1,2,3-triazol-1-yl)-1H-pyrrolo[2,3-c]pyridin-3-yl)ethane-1,2-dione]: the pEC50 is over 6.30.

In the case of `COc1cnc(-c2ccn(CC(=O)N(C)C)n2)c2[nH]cc(C(=O)C(=O)N3CCN(c4nnnn4-c4ccccn4)CC3)c12` [B-76], the pEC50 is under 6.30.

On to `O=C(C(=O)N1CCN(C2=NCCCN2c2ccccc2)CC1)c1c[nH]c2c(-n3ccnn3)ncc(F)c12` [A-40], for which the negative logarithm of the EC50 (pEC50) is under 6.30.

For `CN1CCN(C(=O)c2cc(-c3ncc(F)c4c(C(=O)C(=O)N5CCN(c6nnnn6-c6ccccc6)CC5)c[nH]c34)n[nH]2)CC1` [F-1], the pEC50 is over 6.30.

For the molecule `COc1ccnc2[nH]cc(C(=O)C(=O)N3CCN(c4nnnn4-c4ccccc4)CC3)c12` [A-11], the pEC50 is over 6.30.

For the molecule `CCOc1cccnc1N1CCN(C(=O)C(=O)c2c[nH]c3c(-n4cnc(C)n4)ncc(OC)c23)CC1` [A-63], the pEC50 was over 6.30.

With `COc1cnc(-n2cnc(C)n2)c2[nH]cc(C(=O)C(=O)N3CCN(c4ccnnc4-c4ccccc4)CC3)c12` [G-15b], the pEC50 was over 6.30.

In the case of `Cn1nc(-c2ncc(F)c3c(C(=O)C(=O)N4CCN(c5nnnn5-c5ccccc5)CC4)c[nH]c23)cc1C(=O)NCCO` [B-44], the pEC50 was over 6.30.

For the molecule `O=C(C(=O)N1CCN(c2nsnc2-c2ccccc2)CC1)c1c[nH]c2c(-n3ccnn3)ncc(F)c12` [A-13], the negative logarithm of the EC50 (pEC50) was over 6.30.

In the case of `COc1cnc(-n2cnc(C)n2)c2[nH]cc(C(=O)C(=O)N3C[C@H](C)N(c4nnnn4-c4ccccc4)C[C@H]3C)c12` [A-32], the pEC50 was over 6.30.

Take `CCOC(=O)c1cc(-c2ncc(F)c3c(C(=O)C(=O)N4CCN(c5c[nH]nc5-c5ccccc5)CC4)c[nH]c23)n[nH]1` [B-51]: the pEC50 is over 6.30.

As for `CC(=O)N1CCN(C(=O)c2cc(-c3ncc(F)c4c(C(=O)C(=O)N5CCN(c6nnnn6-c6ccccc6)CC5)c[nH]c34)n[nH]2)CC1` [F-5], the pEC50 is over 6.30.

In the case of `CCC(O)(CC)c1cc(-c2ncc(OC)c3c(C(=O)C(=O)N4CCN(c5nnnn5-c5ccccn5)CC4)c[nH]c23)n[nH]1` [B-78], the pEC50 was over 6.30.

As for `COc1cnc(-c2ccnc(F)c2)c2[nH]cc(C(=O)C(=O)N3CCN(c4nnnn4-c4ccccn4)CC3)c12` [H-8], the pEC50 is over 6.30.

For the molecule `COc1cnc(Br)c2[nH]cc(C(=O)C(=O)N3CCN(c4nncn4-c4ccccc4)CC3)c12` [A-53], the pEC50 is over 6.30.

Consider `COc1cnccc1-c1ncc(OC)c2c(C(=O)C(=O)N3CCN(c4nnnn4-c4ccccn4)CC3)c[nH]c12` [H-5], for which the pEC50 was over 6.30.

Take `COc1cnc(-n2cnc(C)n2)c2[nH]cc(C(=O)C(=O)N3CCN(c4nc5ccccc5nc4-n4nc(C)cc4C)CC3)c12` [D-9]: the pEC50 is under 6.30.

Regarding `O=C(C(=O)N1CCN(c2cn(CCN3CCOCC3)nc2-c2ccccc2)CC1)c1c[nH]c2c(-n3ccnn3)ncc(F)c12` [G-16], the pEC50 was over 6.30.

As for `COc1cnc(-c2cnc(-n3ccnc3)cn2)c2[nH]cc(C(=O)C(=O)N3CCN(c4nnnn4-c4ccccc4)CC3)c12` [G-2c], the pEC50 was over 6.30.

For the molecule `O=C(C(=O)N1CCN(c2nnnn2-c2ccccc2)CC1)c1c[nH]c2c(-c3cc(C(=O)N4CCSC4)[nH]n3)ncc(F)c12` [F-10], the pEC50 is over 6.30.

With `COc1cnc(-n2cnc(C)n2)c2[nH]cc(C(=O)C(=O)N3CCN(c4nnnn4-c4cccc(O)n4)CC3)c12` [E-12c], the pEC50 is over 6.30.

Turning to `CN(C)CCCNC(=O)c1cc(-c2ncc(F)c3c(C(=O)C(=O)N4CCN(c5nnnn5-c5ccccc5)CC4)c[nH]c23)nn1C` [B-45], the pEC50 is over 6.30.

These data come from patent publication US7807676B2, “Diketo-Piperazine and Piperidine derivatives as antiviral agents” (priority 2006, dated 2010).
